Assay results as given in patent EP1296995B1, “3'-PRODRUGS OF 2'-DEOXY-BETA-L-NUCLEOSIDES” (priority 2000, dated 2001).
Where a name gives a salt, the structure may show the parent alone. Read-outs that look alike come from different tables or passages of the source. One block for each compound: values may come before it.

How the values were obtained:
[1] = system: HBV; assay: Antiviral activity against HBV in 2.2.15 cells (reduction of HBV DNA); conditions: 2.2.15 cells
[2] = in vivo; design: species or system cynomologus monkeys (macaca fascicularis); conditions: cynomolgus monkey
From the text: The drug was quantitated in plasma and urine with a liquid chromatography-mass spectrometry (LC-MS) technique.

[3] = in vivo; conditions: rat
Procedure: Clinical observations were documented once daily. Body weights were documented before dosing on Days 1, 8, 15, 22, and 28 and before necropsy on Day 29. Food consumption was documented weekly. Blood samples for hematology and serum chemistries also were collected before necropsy on Day 29.
Toxicokinetics. An additional 54 animals (27 males and 27 females) had samples collected for pharmacokinetic analyses on Days 1 and 28. […] Analysis of the 500 mg/kg group is in progress.

[4] = monkey, in vivo
[5] = in vivo; conditions: monkey, po
[6] = rhesus monkey, in vivo, po
[7] = monkey, in vivo; remark: listed apart in the source
[8] = Oral bioavailability of L-dC via dival-L-dC (HPLC); conditions: cynomolgus monkey, in vivo
From the text: The drug was quantitated in plasma and in urine using HPLC analysis.

[9] = system: HepG2 cells; assay: in vitro
From the text: (§1) These studies included analysis of lactic acid production, mtDNA content and determination of changes in morphology (e.g., loss of cristae, matrix dissolution and swelling, and lipid droplet formation) of mitochondrial ultrastructure.

[10] = in vitro; conditions: human, hepg2 cells
From the text: as §1

[11] = Stability study in buffers at various pH; assay type: physicochemical
[12] = physchem; conditions: 0.02 m phosphate buffer
Procedure: (§2) To 1 mL of this solution, 1 mL of octanol-1 (B) saturated with 0.02 M phosphate buffer solution (A) was added. The resultant mixture was shaken and centrifuged; three samples from each phase was collected and analyzed by HPLC, as shown in Table 10. […]
as §2, with “The solution was then saturated with octanol-1 (B). To” for “To”, “11.” for “10.”

[13] = physchem; conditions: water
[14] = system: Rats Primary Hepatocytes; assay: Intracellular metabolism of L-dC in rat primary hepatocytes; conditions: 10 µM L-dC, 24 hours
[15] = system: Monkey Primary Hepatocytes; assay: Intracellular metabolism of L-dC in monkey primary hepatocytes; conditions: 10 µM L-dC, 24 hours, n=1
[16] = biological target: virion-associated DNA polymerase of WHV; assay: Endogenous polymerase assay, virion-associated DNA polymerase; assay type: biochemical

SMILES: Nc1ccn([C@@H]2CS[C@H](CO)O2)c(=O)n1 [3TC, (-)-enantiomer of cis-2-hydroxymethyl-5-(cytosin-1-yl)-1,3-oxathiolane, reference compound]
S.I. (CC50/EC90) [1]: > 5,000

SMILES: CC(C)[C@H](N)C(=O)OC[C@@H]1O[C@H](n2ccc(N)nc2=O)C[C@H]1O [5'-val-L-dC, 5'-L-valine ester of 2'-deoxy-β-L-cytidine hydrochloride]
share of drug excreted in the urine (total recovered dose) ([2]; iv): ~3.7% | concentration at 2 h ([2]; iv, 10 mg/kg): 80 nM | share of drug excreted in the urine (total recovered dose) ([2]; po): ~0.2% | AUClast higher for females than males [3]: 25-50% | AUClast higher on Day 28 vs. Day 1 [3]: 30-62% | Tmax ([3]; po): 1 to 2 h | Tlast (median) [4]: 10 h | median Tmax ([4]; po): 1 h | bioavailability [5]: 39 ± 11.4%

share of drug excreted in the urine (total recovered dose) [6]: 23% | share of drug excreted in the urine (total recovered dose) ([2]; iv): approximately 2.5% | concentration ([2]; iv, 10 mg/kg): 220 to 880 nM | share of drug excreted in the urine (total recovered dose) ([2]; po): approximately 2.5% | concentration ([2]; po, 10 mg/kg, 8 h): 390 nM | share of the dose recovered in the urine ([7]; iv, 10 mg/kg): 4.0% | share of drug excreted in the urine (total recovered dose) ([7]; po): 29% | share of drug excreted in the urine (recovered dose) [8]: approximately 10%
SMILES: O=c1ccn([C@@H]2C[C@@H](O)[C@H](CO)O2)c(=O)[nH]1 [L-dU, β-L-2'-deoxyuridine]

SMILES: Nc1ccn([C@H]2CC[C@@H](CO)O2)c(=O)n1 [ddC, zalcitabine]
Lipid Droplet Formation [9]: negative | Mitochondrial Morphology [9]: abnormal | activity [10]: 95 ± 4.4% | activity at 336 h [10]: 13% | inhibition at 336 h [10]: 87%

SMILES: CC(C)[C@H](N)C(=O)O[C@@H]1C[C@@H](n2ccc(N)nc2=O)O[C@H]1CO [3'-val-L-dC, 3'-valinyl ester of β-L-deoxyribocytosine]
half-life ([11]; 0.2m tris-hcl, pH 7.4): 7 h | half-life ([11]; pH 1.2 (135 mM KCl-HCl buffer solution), read-out: half-life): > 48 h | logD ([12]; pH 7.2, log P (octanol/water)): -1.53 | solubility [13]: > 408 mg/mL | bioavailability [5]: 85.1 ± 24.5%

SMILES: O=c1[nH]c(=O)n([C@@H]2O[C@H](CO)[C@@H](O)[C@@H]2F)cc1I [FIAU, fialuridine]
Lipid Droplet Formation ([9]; Conc. (µM): L-dC 10, FIAU 10, ZDV 50, ddC 1): positive | Mitochondrial Morphology ([9]; Conc. (µM): L-dC 10, FIAU 10, ZDV 50, ddC 1, electron microscopy): abnormal | increase of lactic acid production compared to vehicle control ([9]; HepG2 cells): 100% | activity [10]: 203% | activity at 336 h [10]: 86%

SMILES: CC(=O)OC[C@@H]1O[C@H](n2ccc(N)nc2=O)C[C@H]1OC(C)=O [3'5'-diacetyl-L-dC, 3',5'-Di-O-acetyl-2'-deoxy-β-L-cytidine]
logD ([12]; pH 7.2): -0.74 | bioavailability [5]: 23 ± 6.5%

SMILES: O=c1ccn([C@@H]2C[C@@H](O)[C@H](COP(=O)(O)OP(=O)(O)OP(=O)(O)O)O2)c(=O)[nH]1 [L-dU-TP, β-L-2'-deoxyuridine 5'-triphosphate]
intracellular metabolite level [14]: 46.9 ± 5.2 µM | intracellular metabolite level [15]: 21.9 µM | IC50 ([16]; target as printed, read-out: IC50 in vitro against hepatitis B virus DNA polymerase): 5.26 µM

SMILES: Nc1ccn([C@@H]2C[C@@H](O)[C@H](COP(=O)(O)OP(=O)(O)OP(=O)(O)O)O2)c(=O)n1 [L-dC-TP]
intracellular metabolite level [14]: 14.2 ± 3.1 µM | intracellular metabolite level [15]: 39.3 µM | IC50 ([16]; endogenous polymerase assay, read-out: IC50 viral DNA pol (WHV DNA polymerase)): 1.82 ± 0.23 µM

SMILES: Nc1ccn([C@H]2C[C@H](O)[C@@H](CO)O2)c(=O)n1 [D-dC, D-Deoxycytidine]
P(B/A) ([12]; pH 7.2): 0.039 | log P (octanol/water) ([12]; pH 7.2): -1.41

SMILES: CC(=O)Nc1ccn([C@@H]2C[C@@H](O)[C@H](CO)O2)c(=O)n1 [N^4-acetyl-L-dC, N^4-Acetyl-2'-deoxy-β-L-cytidine]
half-life ([11]; pH 1.2, read-out: half-life): 0.833 h
